For one assay, the target named is S1PR1 (Mus musculus, UniProt O08530). The settings on record: mice; by inhibiting tumor vascularization; cited from earlier work.
Assay [1] has as its system Yumm murine melanoma cells. The experiment in a line: SKI-I treatment with or without immune checkpoint antibody in mice with untransfected Yumm tumors. The settings on record: mice harboring Yumm tumors, SKI-I combined with anti-PD-1. In kind it is in vivo. How it is done: Animal experiments were conducted in accordance with national and international policies, and our protocol was approved by the Regional Ethics Committee of Midi-Pyrenees. 3.105 of Yumm cell lines (Untransfected, shCtrl, shSK1 or shSK1(2)) were intradermally injected into the flank of 7-week-old C57BL/6 mice (Charles River, L'Arbresle, France). CD8-deficient C57BL/6 mice were a gift from Prof. J. van Meerwijk (INSERM U1043, Toulouse, France). Tumor volume was calculated using a caliper at the indicated days as described (Albinet, Bats et al. 2014). For combination experiments involving shCtrl or shSK1 Yumm cells, mice were challenged intradermally (i.d.) with 3.105 cells on day 0 on their right flank. Mice were then injected i.p. three times with anti-CTLA-4 (200 μg per mouse on D7 and 100 μg per mouse on D10 and D13), and/or with anti-PD-1 or isotype control antibody (200 μg per mouse on D5, D7 and D10). Tumor volumes were measured every 2-3 days. Anti-CTLA-4 (9H10), anti-PD-1 (RMP1-14) and isotype control (2A3) were purchased from BioXcell.
For SKI-I treatment, 5 days after Yumm or MC38 cell implantation, mice were treated or not with 50 mg/kg SKI-I (N′-[(2-hydroxynaphthalen-1-yl)methylidene]-3-(naphthalen-2-yl)-1H-pyrazole-5-carbohydrazide, Enamine) in 50 μl of a mixture of DMSO (10%), Cremophor (5%), Tween-80 (5%) and glucose (80%) (i.p.). […]

These results are taken from patent publication US10822415B2, “Methods for enhancing the potency of the immune checkpoint inhibitors” (INSERM (INSTITUT NATIONAL DE LA SANTÉ ET DE LA RECHERCHE …, priority 2016, dated 2020).

Molecules are shown by their SMILES.

Sequence of S1PR1 (O08530 whole entry): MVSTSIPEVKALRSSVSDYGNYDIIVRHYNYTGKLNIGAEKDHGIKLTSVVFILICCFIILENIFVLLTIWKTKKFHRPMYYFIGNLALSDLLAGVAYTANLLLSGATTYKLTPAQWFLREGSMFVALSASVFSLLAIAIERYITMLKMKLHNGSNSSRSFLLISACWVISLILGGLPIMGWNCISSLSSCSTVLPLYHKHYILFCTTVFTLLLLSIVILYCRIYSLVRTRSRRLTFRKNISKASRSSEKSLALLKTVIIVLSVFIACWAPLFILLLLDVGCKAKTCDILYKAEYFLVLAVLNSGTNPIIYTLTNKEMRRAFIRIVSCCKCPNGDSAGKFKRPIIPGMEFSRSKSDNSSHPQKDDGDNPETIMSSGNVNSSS

On to `CCCCCCCCc1ccc(CCC(N)(CO)CO)cc1` [FTY720], for which the melanoma progression entry on S1PR1 was “reduced melanoma progression”.

`O=C(N/N=C/c1c(O)ccc2ccccc12)c1cc(-c2ccc3ccccc3c2)n[nH]1` [SKI-I, N′-[(2-hydroxynaphthalen-1-yl)methylidene]-3-(naphthalen-2-yl)-1H-pyrazole-5-carbohydrazide]: the “efficacy of anti-PD-1 (tumor growth)” value in assay [1] is reported as “enhanced the efficacy of anti-PD-1”.
